# Test results: US5478807A, “Use of relaxin in the treatment of bradycardia” (Genentech, Inc., priority 1992, dated 1995)
# Where “and” joins values, the source holds several entries; their conditions need not be identical. Equal values may be shown once.
# Assays:
# [1] = Continuous subcutaneous infusion in female SHR and SD rats, uterine weight; assay type: in vivo, rat; settings: continuous s.c. infusion 1 or 10 ng/min
# Protocol: Groups (4 to 9 animals in each group) of conscious, non-pregnant, Spontaneously Hypertensive (SHR) and Sprague-Dawley (SD) female rats weighing about 144-385 g each, were used in this experiment. The rats were anesthetized with ketamine hydrochloride (150 mg/kg) in order to cannulate the left iliac artery and to implant an osmotic pump. All surgery was performed under aseptic conditions. Stretched PE 50 tubing was fitted with an injection cap and flushed with heparinized saline, routed subcutaneously, exteriorized between the capsulae, and passed through a spring tether that is anchored to the skin with a nylon button. Extreme care was taken in cannulating the left iliac artery to avoid damage to collateral circulation and local innervation. An (Alzet) osmotic pump filled with relaxin or vehicle was then inserted into a subcutaneous pocket caudal to the exit point of the cannula.
# All wounds were closed with suture, infiltrated with Xylocaine and coated with Betadine. […] Arterial pressure, heart rate, water intake, urine volume and vascular blood volume were measured daily throughout the duration of the experiments.
# Arterial pressure and heart rate were measured directly through the arterial cannulae with standard pressure transducers (Stoelting) and strain gauge amplifiers (Stoelting). […]
# [2] = tested on: right atrium; assay: Right atrial rate, isolated spontaneously beating right atrium; design: species or system rat; settings: for right atrial heart rate % Δ, mean (X): mean of experiments; for right atrial heart rate / right atrial heart rate % Δ: single experiment
# Protocol: Krebs-Henseleit solution was prepared with the following composition (in millimoles): NaCl 118; KCl 4.7; MgSO4 1.64; NaHCO3 24.88; KH2 PO4 1.18; d-glucose 11.1; bubbled with 95% O2 /5% CO2; CaCl2 2.52.
# Human (H2) relaxin (hRLx-2, 1.5 mg/ml; Genentech) was diluted fresh daily to desired concentrations (500:1; 5000:1; 50000:1) in Krebs-Henseleit solution.
# Male Wistar rats (Charles River) weighing 475-525 g each, were anesthetized with sodium pentobarbital (60 mg/kg). After thoracotomy, the heart was removed rapidly and placed in cold (4° C.) Krebs-Henseleit solution until spontaneous contractions ceased. The right and left atria were excised.
# Tissue was bathed in an organ chamber holding 42 ml Krebs-Henseleit solution that was aerated with 95% O2 /5% CO2 and heated to 37° C. with a temperature controlled water jacket. Tissue contractions were measured with force-displacement transducers (Grass FT 0.3) and recorded on chart paper (Grass moled 79 polygraph). The rates of contractions were determined with a cardiotachometer (Grass). Electrical stimulation of tissue was induced through bipolar clip electrodes connected to a stimulator through a stimulus isolation unit (Grass model S48).
# Stainless steel clips weighing 0.5 g each were attached to each end of the right atrium. One clip was secured to a hook within the organ chamber and the other clip was attached to the force-displacement transducer. The position of the transducer was adjusted to yield 0.5 g resting tension.
# In all experiments the atria were allowed to stabilize for 30 minutes prior to addition of drugs. […] Thus, cumulative dose-response curves were generated. At 10 minute intervals, relaxin was added to each organ chamber to obtain bath concentrations of 100 pg/ml, 300 pg/ml, 1 ng/ml, 3 ng/ml, 10 ng/ml and 30 ng/ml.
# Measurement of contraction rate and force of contraction following each dose of relaxin were obtained after responses reached a steady state. Rate was determined directly from the output of the cardiotachometer. Force of contraction was measured as the magnitude of the contractile twitches. In order to adjust for variations between tissues, data are expressed as percent changes from pre-drug values, as means±standard errors. Measurements of rate were obtained in seven right atria; measurement of contractile force were obtained in four left atria.
# [3] = Intravenous injection of relaxin, earlier experiments; assay type: in vivo
substance,measurement,setting,value
relaxin,uterine weight,[1],increased uterine weights
same,"right atrial heart rate % Δ, mean (X)",[2]; 100 pg (printed under 30 pg),0.17%
same,right atrial heart rate,[2]; 100 pg,290 beats/min and 270 beats/min and 300 beats/min and 320 beats/min
same,right atrial heart rate % Δ,"[2]; 100 pg, change from pre-drug value",0% and 1%
same,"right atrial heart rate % Δ, mean (X)",[2]; 300 pg (printed under 100 pg),3.83%
same,right atrial heart rate,[2]; 300 pg,300 beats/min and 295 beats/min and 310 beats/min and 330 beats/min
same,right atrial heart rate % Δ,[2]; 300 pg,3% and 9% and 5% and 0%
same,"right atrial heart rate % Δ, mean (X)",[2]; 1 ng (printed under 300 pg),11.67%
same,right atrial heart rate,[2]; 1 ng,320 beats/min and 310 beats/min and 350 beats/min and 345 beats/min
same,"right atrial heart rate % Δ, mean (X)",[2]; 3 ng (printed under 1 ng),23.33%
same,right atrial heart rate,[2]; 3 ng,345 beats/min and 350 beats/min and 400 beats/min and 360 beats/min and 365 beats/min
same,"right atrial heart rate % Δ, mean (X)",[2]; 10 ng (printed under 3 ng),32.0%
same,right atrial heart rate,[2]; 10 ng,345 beats/min and 390 beats/min and 445 beats/min and 370 beats/min and 385 beats/min and 380 beats/min
same,"right atrial heart rate % Δ, mean (X)",[2]; 30 ng (printed under 10 ng),36.2%
same,average increase in contraction rate,[2]; 30 ng/minute dose,36%
same,right atrial heart rate,[2]; 30 ng,400 beats/min and 450 beats/min and 385 beats/min and 395 beats/min and 405 beats/min
same,point of half maximal increase in contraction rate,[2]; right atrium,about 1.8 ng/ml
same,heart rate,[3],small but consistent increase in heart rate
same,systolic and diastolic pressure,[3],decrease in systolic and diastolic pressure
